Test results reported in patent publication US20230357440A1, “BISPECIFIC ANTIBODY AGAINST CD3 AND CD20 IN COMBINATION THERAPY FOR TREATING FOLLICULAR LYMPHOMA” (GENMAB A/S, priority 2020, published 2023).

Experiments:
[1] = tested on: double-refractory follicular lymphoma; details: Salles et al., Haematologica 2017; cited from earlier work
[2] = tested on: T cells isolated from human healthy donor buffy coats; experiment: in vitro T-cell activation assay (flow cytometry; CD69, CD25, CD107/LAMP-1); type: cell-based
Method: (§1) Bendamustine, an alkylating agent that causes intra- and inter-strand crosslinks between DNA bases, is approved for treatment of CLL and indolent B-NHL. This experiment was performed to determine whether bendamustine impacts the anti-tumor activity of epcoritamab by using in vitro T-cell activation and cytotoxicity assays.
(§2) Briefly, Human Burkitt lymphoma (Raji [ATCC, cat. no. CCL-86]) and DLBCL (SU-DHL-4 [Deutsche Sammlung von Mikroorganismen und Zellkulturen—DSMZ, cat. no. ACC-495]) cell lines were used as target cells. Cells were cultured in culture medium (RPMI 1640 with HEPES and L-Glutamine supplemented with 10% heat-inactivated donor bovine serum with iron, and 1% [v/v] penicillin/streptomycin) to which 2 mM L-glutamine, and 1 mM sodium pyruvate were added, at 37° C., 5% CO2. T cells, which were isolated from human healthy donor buffy coats by negative selection using the RosetteSep™ Human T Cell Enrichment Cocktail (Stemcell Technologies) followed by density centrifugation over a Ficoll gradient, both according to the manufacturer's instructions, were used as effector cells. Isolated cells were washed twice in phosphate buffered saline (PBS) and counted using acridine orange/propidium iodide (AO/PI) viability staining solution (Nexcelom Bioscience) on a Cellometer® Auto 2000 Cell Viability Counter. T cells (100,000 cells/well) were incubated with Raji or SU-DHL-4 cells (50,000 cells/well) in culture medium in the presence of epcoritamab (0.033 pg/mL-333 ng/mL) and bendamustine (0-20 μM) at 37° C., 5% CO2 for 48 hours. B-cell viability and T-cell activation were measured by flow cytometry (count of CD22-positive cells; expression of the activation markers CD69, CD25, and CD107 [LAMP-1] on CD4+ and CD8+ T cells). The percentage cytotoxicity was calculated as follows: […]

[3] = tested on: relapsed/refractory (R/R) B-NHL; experiment: epcoritamab monotherapy clinical trial in R/R B-NHL (NCT03625037); type: in vivo, human; details: R/R B-NHL patients, preliminary data
From the text: Epcoritamab as monotherapy is currently in a clinical trial for the treatment of relapsed/refractory (R/R) B-NHL (ClinicalTrials.gov Identifier: NCT03625037).

[4] = tested on: previously untreated follicular lymphoma; experiment: Phase 1b study of epcoritamab in combination with rituximab and bendamustine (BR); type: in vivo
Method: The Part 1 dose escalation assesses the initial safety, tolerability, and clinical activity of epcoritamab in combination with BR. Epcoritamab is initially be administered in combination with BR in a 3-subject cohort. DLTs are evaluated during the first 28 days. Depending on the number of DLTs observed in the initial 3 subjects, administration of epcoritamab (full dose: 48 mg or 24 mg) in combination with BR is performed in an additional 3 patients as shown in FIG. 3.
In Part 2, epcoritamab is administered (with the dosing regimen determined in the dose escalation part) in combination with BR. The expansion will include 20 subjects in order to evaluate the preliminary clinical activity of the combination, in addition to safety, tolerability, PK, pharmacodynamic, and immunogenicity data.
A step-up dosing method is used for epcoritamab to mitigate the potential for CRS: priming dose (0.16 mg) on cycle 1 day 1, followed by intermediate dose (0.8 mg) on cycle 1 day 8, full dose (24 mg or 48 mg) on cycle 1 day 15 and day 22, and full dose in subsequent cycles. […] Bendamustine (90 mg/m^2) is administered intravenously daily on days 1 and 2 of cycles 1-6. If bendamustine is started later than day 1 of a cycle, then planned day 1 of the next cycle is calculated from the day when bendamustine was actually initiated in order to maintain the regular cycle interval of 28 days. […]
Safety is assessed by measuring adverse events, laboratory test results, ECGs, vital sign measurements, physical examination findings, and ECOG performance status. Also assessed are immune effector cell-associated neurotoxicity syndrome (e.g., as described by Lee et al., Biol BloodMarrow Transplant 2019; 25:625-638), constitutional symptoms (B symptoms), tumor flare reaction, and survival.

[5] = tested on: CD20-expressing Raji-luc tumor cells; details: even in the presence of an excess of rituximab variant with inert Fc domain (IgG1-RTX-FEAR); cited from earlier work
[6] = tested on: primary DLBCL and follicular lymphoma patient biopsies; details: cited from earlier work
[7] = tested on: Human Burkitt lymphoma Raji cells; type: cell-based; details: no epcoritamab, bendamustine 0-20 μM, 48 hours
Method: as §1
as §2, with “T cells, which were isolated from human healthy donor buffy coats by negative selection using the RosetteSep™ Human T Cell Enrichment Cocktail (Stemcell Technologies) followed by density centrifugation over a Ficoll gradient, both according to the manufacturer's instructions, were used as effector cells.” left out, “T cells (100,000 cells/well) were incubated with Raji or SU-DHL-4 cells (50,000 cells/well) in culture medium in the presence of epcoritamab (0.033 pg/mL-333 ng/mL) and bendamustine (0-20 μM) at 37° C., 5% CO2 for 48 hours.” left out

DLBCL SU-DHL-4 cells = type: cell-based, human; details: no epcoritamab, bendamustine 0-20 μM, 48 hours
Method: as §1
as §2, with “T cells, which were isolated from human healthy donor buffy coats by negative selection using the RosetteSep™ Human T Cell Enrichment Cocktail (Stemcell Technologies) followed by density centrifugation over a Ficoll gradient, both according to the manufacturer's instructions, were used as effector cells.” left out, “T cells (100,000 cells/well) were incubated with Raji or SU-DHL-4 cells (50,000 cells/well) in culture medium in the presence of epcoritamab (0.033 pg/mL-333 ng/mL) and bendamustine (0-20 μM) at 37° C., 5% CO2 for 48 hours.” left out

CC[C@H](Nc1ncnc2[nH]cnc12)c1nc2cccc(F)c2c(=O)n1-c1ccccc1 [idelalisib]
1-year PFS [1]: 43% | toxicities [1]: several toxicities leading to treatment discontinuation

epcoritamab: IgG1 bispecific CD3×CD20 antibody, heavy/light chains SEQ ID NOs: 24, 25 and 26, 27; CAS 2134641-34-0
epcoritamab-induced T-cell activation in the presence of bendamustine ([2]; bendamustine 0-20 μM, Raji or SU-DHL-4 cells, 48 hours): not affected by the presence of bendamustine at all concentrations tested | upregulation of T-cell activation markers on CD4+ T cells in the presence of bendamustine ([2]; bendamustine 0-20 μM, data not shown): not affected by bendamustine | activation of CD8+ T cells (upregulation of CD69, CD25 and LAMP-1) ([2]; in presence of Raji or SU-DHL-4 cells, epcoritamab 0.033 pg/mL-333 ng/mL, 48 hours): concentration-dependent activation of CD8+ T cells | dose-limiting toxicities [3]: no dose-limiting toxicities reported | tolerated dose ([3]; up to at least 48 mg, including 60 mg): at least 48 mg | responders in expansion phase ([4]; 48 mg expansion, as of Sep. 8, 2021, preliminary, non-validated data): 1 | responders in dose escalation phase ([4]; as of Sep. 8, 2021, 17 patients dosed in total, preliminary, non-validated data): 5 | grade of all CRS events ([4]; preliminary data): Grade ½ | most common related AEs ([4]; preliminary data): CRS and Nausea | tumor growth in the xenograft model [5]: effectively reduce tumor growth | tumor cell kill ([6]; biopsy taken 2 weeks after administering the anti-CD20 antibody): up to 40% | T-cell-mediated cytotoxicity in patient biopsies [6]: induced T-cell-mediated cytotoxicity

Cn1c(CCCC(=O)O)nc2cc(N(CCCl)CCCl)ccc21 [bendamustine, 4-[5-[Bis(2-chloroethyl)amino]-1-methyl-iH-benzo[d]imidazole-2-yl]butanoic acid]
number of viable B cells, bendamustine alone [7]: decreased the number of viable B cells in a dose dependent manner | number of viable B cells, bendamustine alone (DLBCL SU-DHL-4 cells): decreased the number of viable B cells in a dose dependent manner
